Article PMC11676671, “Simultaneous Down-Regulation of Dominant Cinnamoyl CoA Reductase and Cinnamyl Alcohol Dehydrogenase Dramatically Altered Lignin Content in Mulberry” (Plants, 2024)

Test system: T1, MaCCR1
T1 construct: full-length CDS in pET-28a, His-tagged, expressed in E. coli BL21(DE3)
Experiment: absorbance decrease of substrate, microplate reader, non-linear fit
Format: biochemical, Morus alba
Description: absorbance decrease of substrate, microplate reader, non-linear fit on MaCCR1

Row | Km (pH and temperature of the kinetic assay not printed (optimum pH 6.0, 20 °C with feruloyl CoA)) | Km (pH and temperature of the kinetic assay not given) | SMILES
1 | 62.6 µM |  | COc1cc(/C=C/C(=O)SCCNC(=O)CCNC(=O)[C@H](O)C(C)(C)COP(=O)(O)OP(=O)(O)OC[C@H]2O[C@@H](n3cnc4c(N)ncnc43)[C@H](O)[C@@H]2OP(=O)(O)O)ccc1O [feruloyl CoA]
2 |  | 160 µM | COc1cc(/C=C/C(=O)SCCNC(=O)CCNC(=O)[C@H](O)C(C)(C)COP(=O)(O)OP(=O)(O)OC[C@H]2O[C@@H](n3cnc4c(N)ncnc43)[C@H](O)[C@@H]2OP(=O)(O)O)cc(OC)c1O [sinapyl-CoA]
